Article PMC9596378, “Discovery and molecular basis of subtype-selective cyclophilin inhibitors” (Nature Chemical Biology, 2022)
Where “and” joins values, the source holds several entries; their conditions need not be identical. Equal entries are not always repeated. Where two headings read alike, the source gives them in different places.

What was measured:
CypB E121S = biological target: T1, CypB E121S (Homo sapiens, UniProt P23284, E121S); assay: biochemical; conditions: mutant CypB E121S; read-out: Mutant Cyclophilin Prolyl Isomerase Inhibition IC50 Values, CypB E121S
T1 construct: Lane 14- SNA-CypB E121S (34-216);; His6 tag with TEV site (2BT vector); SNA remnant stays on the N-terminus (N, cleaved yes); made in house; host or cells: E. coli BL21(DE3)
How it was run: (§1)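 5 nM Cyp, HEPES pH 7.3/NaCl/Triton buffer, 2–3 °C; cpd 5 min, chymotrypsin 25 µM 5 min, then Suc-AAPF-AMC 5 µM in LiCl/TFE. Kinetic fluorescence 330 s. Per-well rate constants, normalized, IC50 from nonlinear fit.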

CypD K118E = biological target: T2, CypD K118E (Homo sapiens, UniProt P30405, K118E); assay: Chymotrypsin coupled prolyl-isomerase assay; format: biochemical; conditions: prolyl-isomerase inhibition
T2 construct: made in house; host or cells: E. coli BL21(DE3)
How it was run: as §1

CypC = biological target: T3, CypC (Homo sapiens, UniProt P45877); assay: Chymotrypsin coupled prolyl-isomerase assay; format: biochemical; conditions: for CypC prolyl-isomerase assay raw dose-response value: Fig. 3b source data, replicates
T3 construct: PPIC (UniProtKB Entry P45877: residues 24–212); host or cells: E. coli BL21(DE3)
How it was run: as §1

CypG = biological target: T4, CypG (Homo sapiens, UniProt Q13427); assay: Chymotrypsin coupled prolyl-isomerase assay; format: biochemical; conditions: for CypG prolyl-isomerase assay raw dose-response value: Fig. 3b source data, replicates
T4 construct: PPIG (UniProtKB Entry Q13427: residues 1–179); His6 with thrombin site (pET28a LIC leader) (N); host or cells: E. coli BL21(DE3)
T4 sequence (Q13427 1-179): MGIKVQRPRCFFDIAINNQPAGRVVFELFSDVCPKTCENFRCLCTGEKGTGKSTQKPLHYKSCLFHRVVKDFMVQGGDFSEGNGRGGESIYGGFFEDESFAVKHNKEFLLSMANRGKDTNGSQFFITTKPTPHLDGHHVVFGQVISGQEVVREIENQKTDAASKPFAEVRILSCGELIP
How it was run: as §1

CypD S123E = biological target: T5, CypD S123E (Homo sapiens, UniProt P30405, S123E); assay: Chymotrypsin coupled prolyl-isomerase assay; format: biochemical; conditions: prolyl-isomerase inhibition
T5 construct: made in house; host or cells: E. coli BL21(DE3)
How it was run: as §1

CypH = biological target: T6, CypH (Homo sapiens, UniProt O43447); assay: Chymotrypsin coupled prolyl-isomerase assay; format: biochemical; conditions: for CypH prolyl-isomerase assay raw dose-response value: Fig. 3b source data, replicates
T6 construct: PPIH (UniProtKB Entry O43447: residues 1–177); His6 with TEV site (2BT vector leader) (N); made in house; host or cells: E. coli BL21(DE3)
How it was run: as §1

CypD R124K = biological target: T7, CypD R124K (Homo sapiens, UniProt P30405, R124K); assay: Chymotrypsin coupled prolyl-isomerase assay; format: biochemical; conditions: mutant CypD R124K; read-out: Mutant Cyclophilin Prolyl Isomerase Inhibition IC50 Values, CypD R124K
T7 construct: made in house; host or cells: E. coli BL21(DE3)
How it was run: as §1

CypA = biological target: T8, CypA (Homo sapiens, UniProt P62937); assay: Chymotrypsin coupled prolyl-isomerase assay; format: biochemical; conditions: for CypA prolyl-isomerase assay raw dose-response value: Fig. 3b source data, replicates
T8 construct: PPIA (UniProtKB Entry P62937: residues 1–165); made in house; host or cells: E. coli BL21(DE3)
How it was run: as §1

CypA E81S/K82R = biological target: T9, CypA E81S/K82R (Homo sapiens, UniProt P62937, E81S/K82R); assay: Chymotrypsin coupled prolyl-isomerase assay; format: biochemical; conditions: mutant CypA E81S/K82R; read-out: Mutant Cyclophilin Prolyl Isomerase Inhibition IC50 Values, CypA E81S/K82R
T9 construct: Lane 12- SNA-CypA E81S/K82R (1-165);; His6 tag with TEV site (2BT vector); SNA remnant stays on the N-terminus (N, cleaved yes); made in house; host or cells: E. coli BL21(DE3)
How it was run: as §1

CypE = biological target: T10, CypE (Homo sapiens, UniProt Q9UNP9); assay: Chymotrypsin coupled prolyl-isomerase assay; format: biochemical; conditions: for CypE prolyl-isomerase assay raw dose-response value: Fig. 3b source data, replicates
T10 construct: PPIE (UniProtKB Entry Q9UNP9: residues 131–301); host or cells: E. coli BL21(DE3)
How it was run: as §1

CypD R124A = biological target: T11, CypD R124A (Homo sapiens, UniProt P30405, R124A); assay: Chymotrypsin coupled prolyl-isomerase assay; format: biochemical; conditions: mutant CypD R124A; read-out: Mutant Cyclophilin Prolyl Isomerase Inhibition IC50 Values, CypD R124A
T11 construct: made in house; host or cells: E. coli BL21(DE3)
How it was run: as §1

CypD K118A = biological target: T12, CypD K118A (Homo sapiens, UniProt P30405, K118A); assay: Chymotrypsin coupled prolyl-isomerase assay; format: biochemical; conditions: prolyl-isomerase inhibition
T12 construct: made in house; host or cells: E. coli BL21(DE3)
How it was run: as §1

T10 sequence (Q9UNP9 131-301): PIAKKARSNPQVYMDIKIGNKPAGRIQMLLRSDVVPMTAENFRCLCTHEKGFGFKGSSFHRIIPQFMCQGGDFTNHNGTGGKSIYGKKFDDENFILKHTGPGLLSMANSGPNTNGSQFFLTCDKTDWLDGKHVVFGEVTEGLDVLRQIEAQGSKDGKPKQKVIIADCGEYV
T3 sequence (P45877 24-212): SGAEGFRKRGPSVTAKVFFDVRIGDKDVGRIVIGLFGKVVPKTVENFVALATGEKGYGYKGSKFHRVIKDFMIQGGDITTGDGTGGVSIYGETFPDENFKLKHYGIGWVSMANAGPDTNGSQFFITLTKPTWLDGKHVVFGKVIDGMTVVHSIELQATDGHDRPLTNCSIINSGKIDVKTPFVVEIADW
T8 sequence (P62937 whole entry, the tested form may be a part): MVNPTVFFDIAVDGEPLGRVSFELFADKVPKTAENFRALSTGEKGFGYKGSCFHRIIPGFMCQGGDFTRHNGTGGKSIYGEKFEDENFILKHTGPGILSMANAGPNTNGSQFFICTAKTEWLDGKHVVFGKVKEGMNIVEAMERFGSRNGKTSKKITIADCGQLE
T6 sequence (O43447 whole entry, the tested form may be a part): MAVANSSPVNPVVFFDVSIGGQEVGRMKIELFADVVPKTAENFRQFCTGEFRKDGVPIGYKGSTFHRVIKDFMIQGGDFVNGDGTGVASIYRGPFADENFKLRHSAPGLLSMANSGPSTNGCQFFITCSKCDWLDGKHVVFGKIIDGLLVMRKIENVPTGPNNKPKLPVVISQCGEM
T11 sequence (P30405 45-207 R124A): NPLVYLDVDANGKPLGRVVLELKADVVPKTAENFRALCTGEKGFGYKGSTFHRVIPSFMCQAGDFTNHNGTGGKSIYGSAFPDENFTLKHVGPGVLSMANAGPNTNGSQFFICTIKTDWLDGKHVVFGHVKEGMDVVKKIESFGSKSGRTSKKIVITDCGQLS
T12 sequence (P30405 45-207 K118A): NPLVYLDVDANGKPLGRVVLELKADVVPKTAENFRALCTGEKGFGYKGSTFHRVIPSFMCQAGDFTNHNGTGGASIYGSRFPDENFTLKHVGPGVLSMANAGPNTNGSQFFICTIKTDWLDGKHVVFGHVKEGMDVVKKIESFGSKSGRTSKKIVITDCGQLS
T7 sequence (P30405 45-207 R124K): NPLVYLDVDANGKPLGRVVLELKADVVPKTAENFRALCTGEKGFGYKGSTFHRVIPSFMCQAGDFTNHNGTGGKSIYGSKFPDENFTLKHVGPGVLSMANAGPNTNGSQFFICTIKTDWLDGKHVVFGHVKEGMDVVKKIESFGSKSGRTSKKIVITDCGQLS
T9 sequence (P62937 whole entry E81S/K82R): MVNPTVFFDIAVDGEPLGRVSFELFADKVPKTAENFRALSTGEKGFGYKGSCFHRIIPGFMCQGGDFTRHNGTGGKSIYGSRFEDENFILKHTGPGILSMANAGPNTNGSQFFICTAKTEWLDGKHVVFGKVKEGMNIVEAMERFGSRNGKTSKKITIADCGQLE
T1 sequence (P23284 34-216 E121S): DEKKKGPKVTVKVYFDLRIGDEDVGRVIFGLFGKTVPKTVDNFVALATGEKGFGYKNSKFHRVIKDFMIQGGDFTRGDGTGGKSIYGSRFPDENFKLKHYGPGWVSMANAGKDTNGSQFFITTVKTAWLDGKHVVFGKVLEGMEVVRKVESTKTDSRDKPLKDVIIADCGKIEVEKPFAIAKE
T5 sequence (P30405 45-207 S123E): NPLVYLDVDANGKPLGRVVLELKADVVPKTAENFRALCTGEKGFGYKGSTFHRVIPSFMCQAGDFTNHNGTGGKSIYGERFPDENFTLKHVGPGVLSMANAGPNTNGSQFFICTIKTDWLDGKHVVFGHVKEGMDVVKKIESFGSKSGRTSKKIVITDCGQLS
T2 sequence (P30405 45-207 K118E): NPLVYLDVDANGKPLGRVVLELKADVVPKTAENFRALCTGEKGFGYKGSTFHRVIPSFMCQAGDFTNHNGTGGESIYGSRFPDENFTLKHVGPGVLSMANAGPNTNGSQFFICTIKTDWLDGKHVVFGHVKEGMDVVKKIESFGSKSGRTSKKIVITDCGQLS

NCCOCCNC(=O)[C@@H]1CCNC(=O)/C=C/C(=O)N2CCC[C@](Cc3ccccc3)(C2)C(=O)N[C@@H](Cc2ccc(-c3ccc(C#CC(=O)O)cc3)cc2)C(=O)NCc2ccccc2CC(=O)N1 [Compound B25]
IC50 (CypB E121S): 2.2 nM
IC50 (CypD K118E): 60 nM
CypC prolyl-isomerase assay raw dose-response value (CypC; Dose 0.0228624 µM): 0.03634 and 0.03032 and 0.04283
CypC prolyl-isomerase assay raw dose-response value (CypC; Dose 0.0685871 µM): 0.03426 and 0.03095 and 0.03961
CypC prolyl-isomerase assay raw dose-response value (CypC; Dose 0.205761 µM): 0.03174 and 0.03534
CypC prolyl-isomerase assay raw dose-response value (CypC; Dose 0.617284 µM): 0.02955 and 0.03116 and 0.0299
CypC prolyl-isomerase assay raw dose-response value (CypC; Dose 1.85185 µM): 0.02445 and 0.02477 and 0.02432
CypC prolyl-isomerase assay raw dose-response value (CypC; Dose 5.55556 µM): 0.0192 and 0.01832 and 0.02111
CypC prolyl-isomerase assay raw dose-response value (CypC; Dose 16.6667 µM): 0.016 and 0.01339 and 0.01312
CypC prolyl-isomerase assay raw dose-response value (CypC; Dose 50 µM): 0.01835 and 0.01198 and 0.01251
IC50 (CypC; wild-type CypC, read-out: Wild-Type Cyclophilin Prolyl Isomerase Inhibition IC50 Values, CypC): 1800 nM
CypG prolyl-isomerase assay raw dose-response value (CypG; Dose 0.0228624 µM): 0.06249 and 0.05548 and 0.0638
CypG prolyl-isomerase assay raw dose-response value (CypG; Dose 0.0685871 µM): 0.05565 and 0.04551* and 0.05901
CypG prolyl-isomerase assay raw dose-response value (CypG; Dose 0.205761 µM): 0.04568 and 0.0619
CypG prolyl-isomerase assay raw dose-response value (CypG; Dose 0.617284 µM): 0.03977 and 0.04815 and 0.06466
CypG prolyl-isomerase assay raw dose-response value (CypG; Dose 1.85185 µM): 0.05698 and 0.05304 and 0.05804
CypG prolyl-isomerase assay raw dose-response value (CypG; Dose 5.55556 µM): 0.0448 and 0.05687 and 0.05139
CypG prolyl-isomerase assay raw dose-response value (CypG; Dose 16.6667 µM): 0.04193 and 0.04196 and 0.0448
CypG prolyl-isomerase assay raw dose-response value (CypG; Dose 50 µM): 0.03044 and 0.02213 and 0.02754
IC50 (CypG; prolyl-isomerase inhibition, 5 nM cyclophilin, read-out: IC50 CypG): ~25000 nM
IC50 (CypG; wild-type CypG, read-out: Wild-Type Cyclophilin Prolyl Isomerase Inhibition IC50 Values, CypG): 25000 nM
IC50 (CypD S123E): 8 nM
CypH prolyl-isomerase assay raw dose-response value (CypH; Dose 0.0228624 µM): 0.04387 and 0.03667 and 0.04369
CypH prolyl-isomerase assay raw dose-response value (CypH; Dose 0.0685871 µM): 0.04493 and 0.03523 and 0.04571
CypH prolyl-isomerase assay raw dose-response value (CypH; Dose 0.205761 µM): 0.04732 and 0.03749
CypH prolyl-isomerase assay raw dose-response value (CypH; Dose 0.617284 µM): 0.04296 and 0.03867 and 0.04263
CypH prolyl-isomerase assay raw dose-response value (CypH; Dose 1.85185 µM): 0.0451 and 0.03462 and 0.04053
CypH prolyl-isomerase assay raw dose-response value (CypH; Dose 5.55556 µM): 0.04418 and 0.03887 and 0.03972
CypH prolyl-isomerase assay raw dose-response value (CypH; Dose 16.6667 µM): 0.03817 and 0.03665 and 0.03617
CypH prolyl-isomerase assay raw dose-response value (CypH; Dose 50 µM): 0.02975 and 0.02514 and 0.02678
IC50 (CypH; prolyl-isomerase inhibition, 5 nM cyclophilin, read-out: IC50 CypH): ~50000 nM
IC50 (CypH; wild-type CypH, read-out: Wild-Type Cyclophilin Prolyl Isomerase Inhibition IC50 Values, CypH): 50000 nM
IC50 (CypD R124K): 2.9 nM
IC50 (CypA; CypA column within the mutant section (comparator for CypA E81S/K82R), read-out: Mutant Cyclophilin Prolyl Isomerase Inhibition IC50 Values, CypA): 37 nM
CypA prolyl-isomerase assay raw dose-response value (CypA; Dose 0.00457247 µM): 0.1146 and 0.097 and 0.1434
CypA prolyl-isomerase assay raw dose-response value (CypA; Dose 0.0137174 µM): 0.07936 and 0.08714 and 0.118
CypA prolyl-isomerase assay raw dose-response value (CypA; Dose 0.0411523 µM): 0.05569 and 0.06344 and 0.07261
CypA prolyl-isomerase assay raw dose-response value (CypA; Dose 0.123457 µM): 0.03132 and 0.03338 and 0.03777
CypA prolyl-isomerase assay raw dose-response value (CypA; Dose 0.37037 µM): 0.02003 and 0.0199 and 0.02096
CypA prolyl-isomerase assay raw dose-response value (CypA; Dose 1.11111 µM): 0.015 and 0.01431 and 0.01411
CypA prolyl-isomerase assay raw dose-response value (CypA; Dose 3.33333 µM): 0.01402 and 0.01221 and 0.01255
CypA prolyl-isomerase assay raw dose-response value (CypA; Dose 10 µM): 0.01563 and 0.01147 and 0.01176
IC50 (CypA; prolyl-isomerase inhibition, 5 nM cyclophilin, read-out: IC50 CypA): 37 ± 7 nM
IC50 (CypA; wild-type CypA, read-out: Wild-Type Cyclophilin Prolyl Isomerase Inhibition IC50 Values, CypA): 37 nM
IC50 (CypA E81S/K82R): 6.2 nM
CypE prolyl-isomerase assay raw dose-response value (CypE; Dose 0.000457247 µM): 0.09478 and 0.08516 and 0.1307
CypE prolyl-isomerase assay raw dose-response value (CypE; Dose 0.00137174 µM): 0.1073 and 0.09145 and 0.116
CypE prolyl-isomerase assay raw dose-response value (CypE; Dose 0.00411523 µM): 0.07586 and 0.07841
CypE prolyl-isomerase assay raw dose-response value (CypE; Dose 0.0123457 µM): 0.04723 and 0.04807 and 0.05181
CypE prolyl-isomerase assay raw dose-response value (CypE; Dose 0.037037 µM): 0.02767 and 0.0265 and 0.02701
CypE prolyl-isomerase assay raw dose-response value (CypE; Dose 0.111111 µM): 0.01749 and 0.01613 and 0.01666
CypE prolyl-isomerase assay raw dose-response value (CypE; Dose 0.333333 µM): 0.01375 and 0.01292 and 0.01229
CypE prolyl-isomerase assay raw dose-response value (CypE; Dose 1 µM): 0.01434 and 0.0116 and 0.01112
IC50 (CypE; wild-type CypE, read-out: Wild-Type Cyclophilin Prolyl Isomerase Inhibition IC50 Values, CypE): 9 nM
IC50 (CypD R124A): 2 nM
IC50 (CypD K118A): 19 nM
